Read-outs that look alike come from different tables or passages of the source.
Assays:
NBD1 = molecular target: T1, NBD1 (Homo sapiens, UniProt P13569); assay: Aggregation analysis using differential static light scattering (DSLS), thermal stability of NBD1 (ΔTagg); type: binding; details: ΔTagg versus DMSO control, NBD1 0.2 mg/ml
T1 construct: Purified recombinant NBD1 was produced using previously described methods; made in house
Summary of the method: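 Stabilisation is measured as the shift in aggregation onset of recombinant NBD1 (0.2 mg/ml, 2 mM ATP, 5 mM MgCl2, pH7.6) exposed to compound. Images are taken every 0.5° C. while heating at 1° C. per minute, and the inflection-point Tagg is corrected by the DMSO mean.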

CFTR = molecular target: T2, CFTR (Homo sapiens, UniProt P13569, DEL508-508); assay: TECC24 AUC fold over DMSO @10 μM, CFTR-mediated transepithelial chloride transport in CF-HBE cells; type: cell-based; details: test agent AUC divided by DMSO vehicle AUC, primary CF-HBE cells, ΔF508 homozygous donor, 48 hours incubation
T2 construct: Primary human bronchial epithelial cells from a ΔF508 homozygous CF donor; host or cells: primary human bronchial epithelial cells (CF-HBE), ΔF508 homozygous donor
Summary of the method: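 Value is ratio of test-agent to DMSO AUC of equivalent transepithelial Cl− current, integrated from forskolin (10 μM) stimulation to CFTR inhibitor-172 (20 μM) block, with benzamil 10 μM present. CF-HBE (ΔF508/ΔF508) cultures had 48 h compound exposure at 10 μM, 36.5° C before recording.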

T2 sequence (P13569 with tags, fused parts or gaps DEL508-508): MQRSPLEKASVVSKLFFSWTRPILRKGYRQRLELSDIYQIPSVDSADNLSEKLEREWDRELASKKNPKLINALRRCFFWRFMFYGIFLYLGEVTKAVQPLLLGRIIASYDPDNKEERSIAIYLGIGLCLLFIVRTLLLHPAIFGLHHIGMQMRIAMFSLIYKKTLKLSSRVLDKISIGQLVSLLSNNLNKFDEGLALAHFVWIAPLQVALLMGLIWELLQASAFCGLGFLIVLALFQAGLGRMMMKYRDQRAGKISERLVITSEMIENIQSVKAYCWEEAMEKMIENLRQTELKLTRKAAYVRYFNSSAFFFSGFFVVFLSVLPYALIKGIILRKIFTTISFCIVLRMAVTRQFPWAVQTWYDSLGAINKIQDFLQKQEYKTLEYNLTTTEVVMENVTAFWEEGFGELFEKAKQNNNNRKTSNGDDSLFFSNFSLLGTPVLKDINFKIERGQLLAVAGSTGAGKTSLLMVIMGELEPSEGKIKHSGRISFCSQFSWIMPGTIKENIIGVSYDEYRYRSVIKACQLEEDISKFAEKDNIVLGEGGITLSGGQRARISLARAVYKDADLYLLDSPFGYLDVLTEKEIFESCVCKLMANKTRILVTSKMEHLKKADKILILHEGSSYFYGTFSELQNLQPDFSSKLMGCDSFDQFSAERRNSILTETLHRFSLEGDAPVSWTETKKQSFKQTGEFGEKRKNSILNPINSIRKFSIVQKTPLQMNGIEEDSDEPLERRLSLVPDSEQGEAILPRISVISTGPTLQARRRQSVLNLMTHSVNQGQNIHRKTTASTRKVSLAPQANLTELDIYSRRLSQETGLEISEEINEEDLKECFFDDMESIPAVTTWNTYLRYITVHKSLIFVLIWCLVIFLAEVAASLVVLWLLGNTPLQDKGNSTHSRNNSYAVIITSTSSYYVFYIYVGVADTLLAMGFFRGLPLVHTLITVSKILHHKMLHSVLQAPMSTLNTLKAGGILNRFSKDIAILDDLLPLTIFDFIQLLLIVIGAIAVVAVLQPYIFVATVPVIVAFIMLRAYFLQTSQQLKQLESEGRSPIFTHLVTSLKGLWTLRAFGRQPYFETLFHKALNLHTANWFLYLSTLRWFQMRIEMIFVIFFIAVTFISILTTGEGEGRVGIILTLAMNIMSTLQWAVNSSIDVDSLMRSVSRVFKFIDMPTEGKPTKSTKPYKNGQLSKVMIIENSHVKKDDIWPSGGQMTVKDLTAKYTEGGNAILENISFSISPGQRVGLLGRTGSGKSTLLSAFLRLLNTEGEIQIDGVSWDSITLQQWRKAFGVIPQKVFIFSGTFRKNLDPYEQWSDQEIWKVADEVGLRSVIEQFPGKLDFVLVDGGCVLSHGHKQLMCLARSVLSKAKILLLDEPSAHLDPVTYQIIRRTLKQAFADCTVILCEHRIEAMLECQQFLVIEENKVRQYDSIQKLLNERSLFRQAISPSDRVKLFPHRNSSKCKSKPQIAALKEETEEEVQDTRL
T1 sequence (P13569 423-646 limits assumed): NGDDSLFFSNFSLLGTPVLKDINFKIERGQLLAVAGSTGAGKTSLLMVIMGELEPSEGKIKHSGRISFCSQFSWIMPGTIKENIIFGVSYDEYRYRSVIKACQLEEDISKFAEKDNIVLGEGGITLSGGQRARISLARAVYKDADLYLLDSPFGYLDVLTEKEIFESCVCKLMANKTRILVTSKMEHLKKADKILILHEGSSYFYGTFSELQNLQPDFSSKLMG

Q: With `COC(=O)[C@H](C)Cc1cccc([C@@]2(C)CCCC(C)(C)CS(=O)(=O)C=Cc3c(c(F)cc4[nH]ccc34)Oc3ccnc(c3)-c3nc2nn3C)c1` as the molecule, how does the ring closure, isolated yield (from C=CS(=O)(=O)CC(C)(C)CCC[C@](C)(c1cccc(C[C@@H](C)C(=O)OC)c1)c1nc(-c2cc(Oc3c(F)cc4[nH]ccc4c3Br)ccn2)n(C)n1, cc_pd bond, 18-membered ring, Pd(PtBu3)2/Et3N, toluene, 2.74 mM, 120.0 °C, 4.0 h) read?
A: The ring closure, isolated yield was 64%.

Q: For “methyl (2R)-3-[3-[(14E)-23,29-difluoro-7,11,11-trimethyl-13,13-dioxo-20-(p-tolylsulfonyl)-25-oxa-13 6-thia-5,6,20-triazapentacyclo[24.3.1.02,6.016,24.017,21]triaconta-1(30),2,4,14,16,18,21,23,26,28-decaen-7-yl]phenyl]-2-methyl-propanoate”, which ring closure, isolated yield (cc_pd bond, 17-membered ring, Pd(PtBu3)2/Et3N, toluene, 0.65 mM, 100.0 °C) is on record?
A: Its ring closure, isolated yield is 23%.

Q: With `COC(=O)[C@@H](C)Cc1cccc([C@@]2(C)CCCC(C)(C)CS(=O)(=O)/C=C/c3c(c(F)cc4[nH]ccc34)Sc3ccc(F)c(c3)-c3nc2nn3C)c1` as the molecule, how does the ring closure, isolated yield (from C=CS(=O)(=O)CC(C)(C)CCC[C@](C)(c1cccc(C[C@H](C)C(=O)OC)c1)c1nc(-c2cc(Sc3c(F)cc4[nH]ccc4c3Br)ccc2F)n(C)n1, cc_pd bond, 18-membered ring, Pd(PtBu3)2/Et3N, toluene, 25.9 mM, 120.0 °C, 2.5 h) read?
A: The ring closure, isolated yield was 69%.

Q: With `COC(=O)[C@H](C)Cc1cccc([C@@]2(C)CCCC(C)(C)CS(=O)(=O)/C=C/c3c(c(F)c(F)c4[nH]ccc34)Oc3ccc(F)c(c3)-c3nc2nn3C)c1` as the molecule, how does the ring closure, isolated yield (from C=CS(=O)(=O)CC(C)(C)CCC[C@](C)(c1cccc(C[C@@H](C)C(=O)OC)c1)c1nc(-c2cc(Oc3c(F)c(F)c4[nH]ccc4c3Br)ccc2F)n(C)n1, cc_pd bond, 18-membered ring, Pd(PtBu3)2/Et3N, toluene, 10.8 mM, 120.0 °C, 3.5 h) read?
A: Its ring closure, isolated yield is 68%.

Q: Which ring closure, isolated yield (from Cn1nc(C(C)(CCSCC(C)(C)c2cn[nH]c2)c2cccc(Br)c2)nc1-c1cc(Oc2c(F)cc3c(ccn3S(=O)(=O)c3ccccc3)c2CO)ccc1F, other bond, 19-membered ring, cyanomethylenetributylphosphorane, toluene, 14.0 mM, 110.0 °C, 4.0 h) does the source give for `Cn1nc2nc1-c1cc(ccc1F)Oc1c(F)cc3c(ccn3S(=O)(=O)c3ccccc3)c1Cn1cc(cn1)C(C)(C)CSCCC2(C)c1cccc(Br)c1` (centres unmarked) here?
A: The ring closure, isolated yield was 37%.

Q: For `COC(=O)[C@H](C)Cc1cccc(C2(C)CCCC(C)(C)CS(=O)(=O)/C=C/c3c(c(F)cc4c3ccn4S(=O)(=O)c3ccc(C)cc3)Oc3ccc(F)c(c3)-c3ccn2n3)c1` (some centres unmarked), which ring closure, isolated yield (cc_pd bond, 18-membered ring, Pd(PtBu3)2/Et3N, toluene, 0.65 mM, 100.0 °C) is on record?
A: Its ring closure, isolated yield is 11%.

Q: With `COC(=O)[C@H](C)Cc1cccc([C@@]2(C)CCCC(C)(C)CS(=O)(=O)/C=C/c3c(c(F)c(F)c4[nH]ccc34)Sc3ccnc(c3)-c3nc2nn3C)c1` as the molecule, how does the ring closure, isolated yield (cc_pd bond, 18-membered ring, Pd(PtBu3)2/Et3N, toluene, 21.3 mM, 120.0 °C) read?
A: Its ring closure, isolated yield is 56%.

Q: Which ring closure, isolated yield (cc_pd bond, 18-membered ring, chloro[(tBu3P)(2-aminobiphenyl-2-yl)Pd(II)]/tBu3P-HBF4/Cy2NMe, toluene, 16.8 mM, 120.0 °C) does the source give for “Diastereomer 1 of methyl 3-methoxy-2-(3-((R,1^4Z,5E)-2^6,4^6,4^7-trifluoro-1^1,9,9,13-tetramethyl-4^1-(methylsulfonyl)-7,7-dioxido-1^1H,4^1H-3,7-dithia-4(5,4)-indola-1(5,3)-triazola-2(1,3)-benzenacyclotridecaphan-5-en-13-yl)benzyl)propanoate” here?
A: Its ring closure, isolated yield is 68%.

Q: With `CCOC(=O)CCc1cccc(C2CCCC(C)(C)CSCCc3c(c(F)cc4[nH]ccc34)Oc3ccc(F)c(c3)-c3nn2cc3C#N)c1` (centres unmarked) as the molecule, how does the ring closure, isolated yield (from CCOC(=O)CCc1cccc(C(O)CCCC(C)(C)CSCCc2c(Oc3ccc(F)c(-c4n[nH]cc4C#N)c3)c(F)cc3[nH]ccc23)c1, other bond, 18-membered ring, cyanomethylenetributylphosphorane, 1,4-dioxane, 40.9 mM, 150.0 °C, 0.67 h) read?
A: Its ring closure, isolated yield is 46%.

Q: For `[2H]C([2H])([2H])n1nc2nc1-c1cc(ccc1F)Oc1c(F)cc3[nH]ccc3c1C=C(C(=O)OCC)S(=O)(=O)CCCCCC2(C)c1cccc(OCC(=O)OCC)c1` (centres unmarked), which ring closure, isolated yield (from [2H]C([2H])([2H])n1nc(C(C)(CCCC(C)(C)CS(=O)(=O)CC(=O)OCC)c2cccc(OCC(=O)OCC)c2)nc1-c1cc(Oc2c(F)cc3[nH]ccc3c2C=O)ccc1F, other bond, 18-membered ring, piperidine/AcOH, toluene, 2.6 mM, 110.0 °C) is on record?
A: Its ring closure, isolated yield is 52%.

Q: Which ring closure, isolated yield (the molecule shown is the open-chain precursor, cc_pd bond, 20-membered ring, Pd(OAc)2/Cu(OAc)2, DMF/DMSO 9:1, 1.36 mM, 70.0 °C) does the source give for `C=CS(=O)(=O)CC(C)(C)CCC[C@](C)(c1cccc(C[C@H](C)C(=O)OC)c1)c1nc(-c2cc(Oc3cc4cc[nH]c4c(F)c3F)ccc2F)n(C)n1` here?
A: The ring closure, isolated yield was 20%.

Q: For `Cn1nc2nc1-c1cc(ccc1F)Oc1c(F)cc3c(ccn3COCc3ccccc3)c1/C=C/S(=O)(=O)CCCCOC2c1cccc(CCCO)c1` (centres unmarked), which ring closure, isolated yield (from Cn1nc(C(OCCCCS(C)(=O)=O)c2cccc(CCCO)c2)nc1-c1cc(Oc2c(F)cc3c(ccn3COCc3ccccc3)c2C=O)ccc1F, other bond, 18-membered ring, NaH, DMF, 19.4 mM) is on record?
A: Its ring closure, isolated yield is 26%.

Q: For `O=Cc1c(Oc2ccc(F)c(-c3ncc(C(CCCCCCS(=O)(=O)CC(=O)O)c4cccc(I)c4)[nH]3)c2)c(F)cc2[nH]ccc12` (centres unmarked), which ring closure, isolated yield (the molecule shown is the open-chain precursor, other bond, 19-membered ring, piperidine/AcOH, toluene, 2.7 mM, 100.0 °C) is on record?
A: The ring closure, isolated yield was 10%.

Q: For `COC(=O)[C@@H](C)Cc1cccc([C@@]2(C)CCCC(C)(C)CS(=O)(=O)/C=C/c3c(c(F)c(F)c4[nH]ccc34)Sc3ccc(F)c(c3)-c3nc2nn3C)c1`, which ring closure, isolated yield (from C=CS(=O)(=O)CC(C)(C)CCC[C@](C)(c1cccc(C[C@H](C)C(=O)OC)c1)c1nc(-c2cc(Sc3c(F)c(F)c4[nH]ccc4c3Br)ccc2F)n(C)n1, cc_pd bond, 18-membered ring, Pd(PtBu3)2/Et3N, toluene, 9.7 mM, 120.0 °C, 4.0 h) is on record?
A: Its ring closure, isolated yield is 80%.

Q: With `COC(=O)[C@H](C)Cc1cccc(C2(C)CCCC(C)(C)CS(=O)(=O)C=Cc3c(c(F)cc4[nH]ccc34)Oc3ccc(F)c(c3)-c3nc2nn3C)c1` (some centres unmarked) as the molecule, how does the ring closure, isolated yield (from C=CS(=O)(=O)CC(C)(C)CCCC(C)(c1cccc(C[C@@H](C)C(=O)OC)c1)c1nc(-c2cc(Oc3c(F)cc4[nH]ccc4c3Br)ccc2F)n(C)n1, cc_pd bond, 18-membered ring, Pd(PtBu3)2/second reagent truncated, toluene, 8.15 mM, 2.0 h) read?
A: The ring closure, isolated yield was 48%.

Q: Which “DSLS 3D (100 μM ΔT)” value (NBD1) does the source give for `C[C@@H](Cc1cccc([C@@]2(C)CCCC(C)(C)CS(=O)(=O)CCc3c(c(F)c(F)c4[nH]ccc34)Sc3ccc(F)c(c3)-c3nc2nn3C)c1)C(=O)O` (racemic) [Compound 259, (2S)-2-methyl-3-[3-[(6R)-21,22,28-trifluoro-3,6,10,10-tetramethyl-12,12-dioxo-12λ6,24-dithia-3,4,19,30-tetrazapentacyclo[23.3.1.12,5.015,23.016,20]triaconta-1(29),2(30),4,15,17,20,22,25,27-nonaen-6-yl]phenyl]propanoic Acid] here?
A: Its value is “C (a value greater than 10 °C and less than or equal to 25 °C is marked “C”)”.

Q: And the “TECC (AUC, 10 μM)” value (CFTR)?
A: Its value is “C (a value between 20 and 80 is marked “C”)”.

Q: Which “DSLS 3D (100 μM ΔT)” value (NBD1) does the source give for `Cn1nc2nc1-c1cc(ccn1)Cc1c(F)cc3[nH]ccc3c1CCS(=O)(=O)CC(C)(C)CCC[C@]2(C)c1cccc(CC(C)(C)C(=O)O)c1` (racemic) [Compound 295, 2,2-dimethyl-3-[3-[rac-(6R)-22-fluoro-3,6,10,10-tetramethyl-12,12-dioxo-12λ6-thia-3,4,19,28,30-pentazapentacyclo[23.3.1.12,5.015,23.016,20]triaconta-1(29),2(30),4,15,17,20,22,25,27-nonaen-6-yl]phenyl]propanoic Acid] here?
A: The value was “B (a value above 5 °C and less than or equal to 10 °C is marked “B”)”.

Q: And the “TECC (AUC, 10 μM)” value (CFTR)?
A: The value was “B (a value between 12-20 is marked “B”)”.

Q: For `C[C@@H](Cc1cccc([C@@]2(C)CCCC(C)(C)CS(=O)(=O)CCc3c(c(F)cc4[nH]ccc34)Oc3cncc(c3)-c3nc2nn3C)c1)C(=O)O` [Compound 244, (2S)-3-[3-[(6R)-22-fluoro-3,6,10,10-tetramethyl-12,12-dioxo-24-oxa-12λ6-thia-3,4,19,27,30-pentazapentacyclo[23.3.1.12,5.015,23.016,20]triaconta-1(29),2(30),4,15(23),16(20),17,21,25,27-nonaen-6-yl]phenyl]-2-methyl-propanoic Acid], which “DSLS 3D (100 μM ΔT)” value (NBD1) is on record?
A: The value was “C (a value greater than 10 °C and less than or equal to 25 °C is marked “C”)”.

Q: And the “TECC (AUC, 10 μM)” value (CFTR)?
A: The value was “C (a value between 20 and 80 is marked “C”)”.

Q: With `Cc1cn2nc1-c1cccc(c1)C(=O)c1c(F)cc3[nH]ccc3c1CCS(=O)(=O)CC(C)(C)CCCC2c1cccc(C[C@H](C)C(=O)O)c1` (stereo partly drawn) [Compound 170, (2S)-3-[3-(22-Fluoro-3,10,10-trimethyl-12,12,24-trioxo-12λ6-thia-5,19,30-triazapentacyclo[23.3.1.12,5.015,23.016,20]triaconta-1(29),2(30),3,15,17,20,22,25,27-nonaen-6-yl)phenyl]-2-methyl-propanoic Acid] as the molecule, how does the “DSLS 3D (100 μM ΔT)” value (NBD1) read?
A: Its value is “A (an ΔTagg value less than or equal to 5 °C is marked “A”)”.

Q: What about the “TECC (AUC, 10 μM)” value (CFTR) of the same molecule?
A: Its value is “A (a TECC value less than 12 is marked “A”)”.

Q: With `COC(=O)/C1=C\c2c(c(F)cc3[nH]ccc23)Oc2cccc(c2)-c2ccn(n2)C(c2cccc(Br)c2)CCCC(C)(C)CS1(=O)=O` (centres unmarked) as the molecule, how does the ring closure, isolated yield (from COC(=O)CS(=O)(=O)CC(C)(C)CCCC(c1cccc(Br)c1)n1ccc(-c2cccc(Oc3c(F)cc4[nH]ccc4c3C=O)c2)n1, other bond, 18-membered ring, piperidine/rest truncated, toluene, 3.5 mM, 100.0 °C) read?
A: Its ring closure, isolated yield is 43%.

Q: Which results are given for `C[C@@H](Cc1cccc(C2(C)CCCC(C)(C)CS(=O)(=O)CCc3c(c(F)cc4[nH]ccc34)Oc3ccc(F)c(c3)-c3nc2nn3C)c1)C(=O)NOCC(O)CO` (single isomer, unassigned) [Compound 148]?
A: DSLS 3D (100 μM ΔT) (NBD1): C (a value greater than 10 °C and less than or equal to 25 °C is marked “C”); TECC (AUC, 10 μM) (CFTR): C (a value between 20 and 80 is marked “C”)

Reference: patent publication US12649750B2, “Macrocyclic compounds, compositions, and methods of using thereof” (Sionna Therapeutics Inc., priority 2022, dated 2026)
